# Measured values taken from patent US7994318B2, “Coumarin derivatives useful as TNFα inhibitors” (Chugai Seiyaku Kabushiki Kaisha, priority 2000, dated 2011).
# System: TNFα
# Assay: In vitro assay: TNFα ELISA of supernatants of LPS-stimulated human PBMC
# Format: cell-based
# Settings: Homo sapiens, PBMC, human PBMC pretreated with drug 60 min, stimulated with LPS (E. coli O55:B5) 100 ng/mL, overnight culture, TNFα in supernatant by ELISA; read-out: 50% Inhibition of TNFα level (IC50)
# Description: Enzyme-linked immunosorbent assays (ELISA) for TNFα can be performed in a conventional manner (Blood, 75, 40-47 (1990)). Human PBMC are isolated from heparinized venous blood obtained from healthy volunteers by Ficoll-Hypaque density centrifugation. The cells are cultured in RPMI1640 medium supplemented with 5% heat-inactivated fetal calf serum and antibiotics. PBMC (5×10E5 cells/mL) in 0.2 mL aliquot are pretreated with drugs in DMSO for 60 min at 37° C. in 96 well round-bottomed tissue culture plates. Thereafter, PBMC in the presence or absence of compound are stimulated with 1 mg/mL LPS from E. coli O55:B5 at a final concentration of 100 ng/mL. After overnight culture, the supernatants are harvested and assayed immediately for TNFα levels from each well. The concentration of TNFα in the supernatant is determined by human TNFα ELISA Kit according to the manufacture's directions.
# Active compounds are characterized by the concentration of the compound that caused 50% inhibition of TNFα level (IC50).
row,SMILES,IC50
1,"Cc1c(Cc2ccncc2)c(=O)oc2cc(OC(=O)N(C)C)c(Cl)cc12 [Example 11, dimethyl carbamic acid 2-oxo-2H-3-(p-pyridinylmethyl)-4-methyl-6-chloro-1-benzopyran-7-yl ester]",130 nM
2,"CN(C)C(=O)Oc1ccc2c(CC(O)c3ccccn3)c(Cc3ccccc3)c(=O)oc2c1 (stereo not drawn) [Example 5, dimethyl carbamic acid 2-oxo-2H-3-benzyl-4-(2-(2-pyridyl)-2-hydroxylethyl)-1-benzopyran-7-yl ester]",19300 nM
3,"Cc1c(Cc2ccccc2)c(=O)oc2cc(SC(=O)N(C)C)ccc12 [Example 13, dimethyl thiocarbamic acid S-2-oxo-2H-3-benzyl-4-methyl-1-benzopyran-7-yl ester]",680 nM
4,"CN(C)C(=O)Oc1ccc2c(-c3cccnc3)c(Cc3ccccc3)c(=O)oc2c1 [Example 8, dimethyl carbamic acid 2-oxo-2H-3-benzyl-4-(m-pyridyl)-1-benzopyran-7-yl ester]",18700 nM
5,"Cc1c(Cc2ccccc2)c(=O)oc2cc(OC(=O)N(C)C)ccc12 [Example 1, dimethyl carbamic acid 2-oxo-2H-3-benzyl-4-methyl-1-benzopyran-7-yl ester]",360 nM
6,"Cc1c(Cc2ccccc2)c(=O)oc2cc(Oc3ncccn3)c(Cl)cc12 [Example 16, 2-oxo-2H-3-benzyl-4-methyl-6-chloro-7-(pyrimidin-2-yloxyl)-1-benzopyrane]",6800 nM
7,"Cc1c(Cc2ccccc2)c(=O)oc2c(C=O)c(OC(=O)N(C)C)ccc12 [Example 6, dimethyl carbamic acid 2-oxo-2H-3-benzyl-4-methyl-8-formyl-1-benzopyran-7-yl ester]",12900 nM
8,"Cc1c(Cc2cccnc2)c(=O)oc2cc(Oc3ncccn3)c(Cl)cc12 [Example 17, 2-oxo-2H-3-(3-pyridylmethyl)-4-methyl-6-chloro-7-(pyrimidin-2-yloxyl)-1-benzopyrane]",50000 nM
9,"COc1cc2c(C)c(Cc3ccccc3)c(=O)oc2cc1OC(=O)N(C)C [Example 3, dimethyl carbamic acid 2-oxo-2H-3-benzyl-4-methyl-6-methoxy-1-benzopyran-7-yl ester]",580 nM
10,"Cc1c(Cc2ccccc2)c(=O)oc2cc(C(F)(F)C(=O)N(C)C)ccc12 [Example 24, 2-oxo-3-benzyl-4-methyl-7-(N,N-dimethylaminocarboxy-difluoromethyl)-1H-benzopyrane]",10400 nM
11,"CCCc1c(Cc2ccc(F)cc2)c(=O)oc2cc(OC(=O)N(C)C)ccc12 [Example 7, dimethyl carbamic acid 2-oxo-2H-3-(4-fluorobenzyl)-4-n-propyl-1-benzopyran-7-yl ester]",1170 nM

# Same assay, conditions: human PBMC pretreated with drug 60 min, stimulated with LPS (E. coli O55:B5) 100 ng/mL, overnight culture, TNFα in supernatant by ELISA; read-out: 50% Inhibition of TNFα level (IC50)
row,IC50,SMILES
1,1800 nM,CCCCS(=O)(=O)Nc1cccc(Cc2c(C)c3cc(Cl)c(Oc4ncccn4)cc3oc2=O)c1 [Example 20-48]
2,310 nM,Cc1c(Cc2cccc(NS(=O)(=O)C(C)C)c2)c(=O)oc2cc(Oc3ncccn3)c(Cl)cc12 [Example 20-47]
3,< 600 nM,CCOC(=O)CC(=O)Nc1cccc(Cc2c(C)c3c(F)cc(Oc4ncccn4)cc3oc2=O)c1 [Example 20-40]
4,2200 nM,CC(=O)CC(=O)Nc1cccc(Cc2c(C)c3cc(Cl)c(Oc4ncccn4)cc3oc2=O)c1 [Example 20-42]
5,270 nM,CCOC(=O)CC(=O)Nc1cccc(Cc2c(CC)c3ccc(Oc4nccs4)cc3oc2=O)c1 [Example 22-9]
6,6400 nM,CCc1c(Cc2cccc([N+](=O)[O-])c2)c(=O)oc2cc(Oc3ncccn3)c(Cl)cc12 [Example 20-55]
7,11900 nM,CCc1c(Cc2cccc([N+](=O)[O-])c2)c(=O)oc2cc(Oc3ncccn3)cc(F)c12 [Example 20-58]
8,5900 nM,CCc1c(Cc2cccc(N)c2)c(=O)oc2cc(Oc3ncccn3)cc(F)c12 [Example 20-59]
9,2800 nM,CCOC(=O)CCC(=O)Nc1cccc(Cc2c(C)c3ccc(Oc4ncccn4)cc3oc2=O)c1 [Example 20-21]
10,6300 nM,Cc1c(Cc2ccccc2)c(=O)oc2cc(C=O)ccc12 [Example 26-1]
11,960 nM,CCCS(=O)(=O)Nc1cccc(Cc2c(C)c3cc(Cl)c(Oc4ncccn4)cc3oc2=O)c1 [Example 20-46]
12,6600 nM,CC(=O)Nc1cccc(Cc2c(C)c3ccc(Oc4ncccn4)cc3oc2=O)c1 [Example 20-20]
13,9700 nM,Cc1c(Cc2ccccc2)c(=O)oc2cc(Oc3ncccn3)cc(F)c12 [Example 20-14]
14,10900 nM,CCc1c(Cc2ccccc2)c(=O)oc2cc(Oc3ncccn3)ccc12 [Example 20-49]
15,650 nM,CCOC(=O)CC(=O)Nc1cccc(Cc2c(CC)c3c(F)cc(Oc4ncccn4)cc3oc2=O)c1 [Example 20-61]
16,3200 nM,CCc1c(Cc2cccc([N+](=O)[O-])c2)c(=O)oc2cc(Oc3nccs3)ccc12 [Example 22-11]
17,11400 nM,Cc1c(Cc2cccc(NC(=O)CCNC(=O)OCc3ccccc3)c2)c(=O)oc2cc(Oc3ncccn3)c(Cl)cc12 [Example 20-32]
18,6700 nM,CCc1c(Cc2cccc(NC(C)=O)c2)c(=O)oc2cc(Oc3ncccn3)ccc12 [Example 20-54]
19,< 600 nM,Cc1c(Cc2cccc(NS(C)(=O)=O)c2)c(=O)oc2cc(Oc3ncccn3)c(Cl)cc12 [Example 20-41]
20,7200 nM,Cc1c(Cc2cccc(N)c2)c(=O)oc2cc(Oc3ncccn3)ccc12 [Example 20-19]
21,250 nM,CCOC(=O)CC(=O)Nc1cccc(Cc2c(C)c3ccc(Oc4nccs4)cc3oc2=O)c1 [Example 22-6]
22,< 600 nM,CCc1c(Cc2cccc(NC(C)=O)c2)c(=O)oc2cc(Oc3nccs3)ccc12 [Example 22-8]
23,9800 nM,Cc1c(Cc2cccc(N)c2)c(=O)oc2cc(Oc3ncccn3)c(Cl)cc12 [Example 20-26]
24,4400 nM,CCc1c(Cc2cccc(NC(C)=O)c2)c(=O)oc2cc(Oc3ncccn3)cc(F)c12 [Example 20-60]
25,8200 nM,Cc1c(Cc2ccccc2)c(=O)oc2cc(C(O)c3ccsc3)ccc12 (stereo not drawn) [Example 26-22]
26,11800 nM,CC(=O)Nc1cccc(Cc2c(C)c3c(Cl)cc(Oc4ncccn4)cc3oc2=O)c1 [Example 20-37]
27,6000 nM,Cc1c(Cc2cccc(N)c2)c(=O)oc2cc(Oc3nccs3)ccc12 [Example 22-4]
28,1700 nM,Cc1c(Cc2ccccc2)c(=O)oc2cc(C(F)C#N)ccc12 (stereo not drawn) [Example 26-24]
29,5800 nM,CC(=O)NCC(=O)Nc1cccc(Cc2c(C)c3cc(Cl)c(Oc4ncccn4)cc3oc2=O)c1 [Example 20-30]

# Second part, the molecule before the results:
row,SMILES,IC50
1,Cc1c(Cc2cccc([N+](=O)[O-])c2)c(=O)oc2cc(OC(=O)N(C)C)c(Cl)cc12 [Example 14-23],< 600 nM
2,Cc1c(Cc2cccnc2)c(=O)oc2cc(OC(=O)N(C)C)ccc12 [Example 14-31],2200 nM
3,CCNC(=O)Nc1cccc(Cc2c(C)c3ccc(OC(=O)N(C)C)cc3oc2=O)c1 [Example 14-69],2400 nM
4,CC(=O)Nc1cccc(Cc2c(C)c3ccc(OC(=O)N(C)C)cc3oc2=O)c1 [Example 14-60],1100 nM
5,CCOC(=O)CC(=O)Nc1cccc(Cc2c(C)c3cc(Cl)c(OC(=O)N(C)C)cc3oc2=O)c1 [Example 14-26],50 nM
6,Cc1c(Cc2ccccc2)c(=O)oc2cc(OC(=O)N(C)C)c(C=O)cc12 [Example 14-16],9600 nM
7,CCOC(=O)CNC(=O)Nc1cccc(Cc2c(C)c3ccc(OC(=O)N(C)C)cc3oc2=O)c1 [Example 14-71],2400 nM
8,Cc1c(Cc2cccc([N+](=O)[O-])c2)c(=O)oc2cc(OC(=O)N(C)C)cc(F)c12 [Example 14-5],3700 nM
9,Cc1c(Cc2cccc(N)c2)c(=O)oc2cc(OC(=O)N(C)C)c(Cl)cc12 [Example 14-24],460 nM
10,Cc1c(Cc2cccc(N)c2)c(=O)oc2cc(OC(=O)N(C)C)ccc12 [Example 14-65],2700 nM
11,Cc1c(Cc2cccc(N)c2)c(=O)oc2cc(OC(=O)N(C)C)cc(F)c12 [Example 14-6],1600 nM
12,COc1ccc(Cc2c(C)c3ccc(OC(=O)N(C)C)cc3oc2=O)cc1 [Example 14-46],5600 nM
13,Cc1c(Cc2ccccc2[N+](=O)[O-])c(=O)oc2cc(OC(=O)N(C)C)c(Cl)cc12 [Example 14-21],3000 nM
14,CN(C)C(=O)Oc1ccc2c(-c3ccccc3)c(Cc3ccc(F)cc3)c(=O)oc2c1 [Example 14-84],1670 nM
15,Cc1c(Cc2ccncc2)c(=O)oc2cc(OC(=O)N(C)C)ccc12 [Example 14-32],1300 nM
16,CC(=O)Nc1cccc(Cc2c(C)c3c(F)cc(OC(=O)N(C)C)cc3oc2=O)c1 [Example 14-7],1000 nM
17,Cc1cc2c(C)c(Cc3ccccc3)c(=O)oc2cc1OC(=O)N(C)C [Example 14-14],400 nM
18,CCc1cc2c(C)c(Cc3ccccc3)c(=O)oc2cc1OC(=O)N(C)C [Example 14-9],4600 nM
19,COC(=O)c1cccc(Cc2c(C)c3ccc(OC(=O)N(C)C)cc3oc2=O)c1 [Example 14-67],1700 nM
20,Cc1c(Cc2ccccc2)c(=O)oc2cc(OC(=O)N(C)C)c(C#C[Si](C)(C)C)cc12 [Example 14-18],3900 nM
21,Cc1c(Cc2cccc([N+](=O)[O-])c2)c(=O)oc2cc(OC(=O)N(C)C)ccc12 [Example 14-56],4500 nM
22,CCc1c(Cc2cccc([N+](=O)[O-])c2)c(=O)oc2cc(OC(=O)N(C)C)ccc12 [Example 14-77],900 nM
23,CCc1c(Cc2cccc(NC(C)=O)c2)c(=O)oc2cc(OC(=O)N(C)C)ccc12 [Example 14-79],1600 nM
